Test results from patent US6949529B2, “Compositions containing lysophosphotidic acids which inhibit apoptosis and uses thereof” (Sky High, LLC, priority 1997, dated 2005).

How the values were obtained:
[1] = system: rat neonatal cardiomyocytes; assay: Cardiomyocyte death induced by ischemia and reperfusion (in vitro model); format: cell-based; conditions: mixture with PEG (FIG. 14)
Experimental: Cardiomyocytes were prepared from hearts of day-old Sprague Dawley rats by trypsinization and mechanical disaggregation (Simpson, (1985)) Circ. Res. 56:884-894. The cells were resuspended in MEM, 1×MEM vitamins (Gibco), 5% fetal bovine serum and 50 U/ml penicillin-G and pre-plated for 30 minutes to reduce contamination of non-myocytes. The non-adherent cardiac myocytes were separated and seeded in 2 ml in 35 mm dishes at a density of 3.5×10^5 viable cells per ml. The cells were allowed to adhere for 16-24 hours in a 37° C./5% CO2 humidified incubator.
For serum deprivation, the medium was replaced with fresh serum-free RPMI, whereas serum/glucose deprivation was performed using glucose-free RPMI. The induction of cell death by adriamycin or C2-ceramide was accomplished by the addition of the agent prepared in serum-free RPMI. As a model of ischemia, cultures in serum and glucose free RPMI were placed in an airtight chamber and the latter was continuously perfused with oxygen-free gas overlay of 95% N2/5% CO2 for 8 hours at 37° C. […]
Because cardiomyocytes are terminally differentiated non-dividing cells, viability was determined by measurement of the decrease in the relative number of adherent cells. […] Adherent cardiomyocytes were collected from culture dishes using 0.25% Trypsin/0.05% EDTA and counted on Coulter Counter ZM and Coulter Channelyzer 256.

C3H/10T½ cells = assay: Effect of proteins on anti-apoptotic activity of soy LPA, C3H/10T½ cell assay; format: cell-based; conditions: 1:10 soy-LPA to protein (weight:weight), 24 h serum deprivation
Experimental: Soy derived LPA (soy-LPA) (Avanti® Polar Lipids, Inc., Alabaster, Ala.) was stored in an organic solution and was dried immediately prior to assay using a Speed Vac (Savant Instruments, Hicksville, N.Y.). Tested proteins were resuspended at 10 mg/mL in a bicarbonate buffered saline/EDTA solution (50 mM NH4HCO3, 104 mM NaCl, 250 μM EDTA) prior to being added to dried soy-LPA at a 1:10 soy-LPA to protein (weight:weight) ratio. The mixture was then sonicated for 5 minutes using a high power 80 Watt sonication bath (Laboratory Supplies Co., Hicksville, N.Y.). Following sonication, concentrated LPA/protein mixtures were left standing for 15 minutes at room temperature prior to dilution in cell culture assay media.
The effect of various proteins on the ability of LPA to protect serum-starved cells from apoptotic death was measured using the C3H/10T½ cell assay, performed as described in Example 2, above. Log phase cells were seeded in 60 mm Petri dishes at 175-350 cells per cm^2 and maintained in Basal Medium Eagle (BME) supplemented with 10% fetal calf serum (Hyclone, Logan, Utah). At time zero, serum containing media was replaced with sterile filtered BME containing the LPA/protein mixture to be tested. After 24 hours of treatment, serum deprived release (SDR) cells (the apoptotic cell population) and adherent (ADH) cells were separated and counted using an electronic cell counter (Coulter Corporation, Hialea, Fla.). SDR cells were counted with the lower threshold setting at 6.3 μm and were defined as the apoptotic cells dying in response to cultivation in serum-free-media. Approximately 95% of the SDR cells are confirmed to be apoptotic as previously shown by size, ultrastructure and DNA fragmentation analysis. Adherent cells were removed by treatment with a Hanks' balanced salt solution containing 0.05% trypsin and 0.53 mM EDTA and were counted with the lower threshold setting at 11.01 μm. All samples were tested in triplicate and serum-deprived controls (BME only) were assayed at both the beginning and end of each experiment.
The effects of various proteins alone or in combination with LPA are expressed as percent cells saved from apoptosis. When C3H10T½ cells were treated with 10 μg/mL soy LPA without protein, 8.0% of the cells were saved. The degree of protection from apoptosis afforded by protein alone, added to the medium at a concentration of 0.1% (wt/vol.), varied from 0.9% to 27.7% of cells saved from apoptosis. An unusually high percentage of cells were protected from serum-starvation-induced apoptosis by casein. This value may be artificially high, as casein preparations have been known to contain growth factors, including insulin-like growth factors (IGF) IGF1 and IGF2. IGF2 is a mitogen that can mask the serum deprivation-induced apoptotic response in these cells.

[2] = Size shift assay on Superdex S75 column; format: binding; conditions: soy LPA with 0.5 μCi ^3H-labeled 18:1-LPA, with test protein
Experimental: Size shift assay. Size analysis of LPA both with and without protein was performed using a Superdex® S75 column (Pharmacia Biotech, Uppsala, Sweden). Soy LPA was combined in a chloroform solution with 0.5 μCi ^3H-labeled 18:1-LPA (DuPont NEN Products, Boston, Mass.), dried under vacuum and resuspended by sonication in a buffered solution (50 mM ammonium bicarbonate, 154 mM sodium chloride, pH 8.0) in the presence or absence of test protein. The ammonium bicarbonate/sodium chloride solution was used as the mobile phase at a flow rate of 1 ml/min. One-minute fractions were collected for 30 minutes following sample injection. Fractions were counted in scintillant solution using a liquid scintillation counter (Beckman Instruments, Irvine, Calif.). Calibration was performed using a standard solution containing purified proteins (BioRad, Hercules, Calif.).

[3] = Electrophoresis radiobinding assay on native polyacrylamide gel; format: binding; conditions: 1 nM labeled 18:1-LPA/45 μg protein, 37° C., 60 minutes
Experimental: Electrophoresis radiobinding assay. Proteins were analyzed on native polyacrylamide gels following incubation with ^3H-labeled 18:1-LPA. ^3H-labeled lysophosphatidic acid (1-oleyl) (DuPont NEN Products, Boston, Mass.) was added to tested proteins at 1 nM labeled 18:1-LPA/45 μg protein. Mixtures were incubated in a bicarbonate buffered saline/EDTA solution at 37° C. for 60 minutes. Incubated samples were mixed with native gel sample buffer (312 mM Tris pH 6.8, 50% glycerol, 0.05% bromophenol blue) and loaded entirely onto an 8% discontinuous native polyacrylamide gel. Following electrophoresis, proteins were fixed into the gels using an aqueous solution consisting of glacial acetic acid, 10% (vol/vol) and methanol 30% (vol./vol.) solution. Fixed gels were then incubated for 60 minutes in autoradiography enhancer (EN^3HANCE, DuPont NEN Products, Boston, Mass.), and dried onto 3M chromatography paper (Whatman, Clifton, N.J.) and exposed to autoradiography film (X-Omat, Kodak, Rochester, N.Y.) for 72 hours at −80° C.

Row | Molecule | cardiomyocyte death induced by ischemia and reperfusion [1] | Protein + 10 μg/mL Soy LPA, percent cells saved from apoptosis (C3H/10T½ cells) [%] | 3H-LPA Size Shift Analysis (+/−) [2] | Detectable Acrylamide Gel ^3H LPA Binding (+/−) [3]
1 | CCCCCCCC/C=C\CCCCCCCC(=O)OCC(O)COP(=O)(O)O (stereo not shown) [18:1 LPA, oleoyl-lysophosphatidic acid] | equally protect |  |  | 
2 | Albumin (Fatty Acid Depleted): fatty acid depleted (FAD) bovine serum albumin (BSA) |  | 58.7 | most of the LPA was bound to BSA | bind to 18:1-LPA
